# Experimental data reported in patent US8697690B2, “Isoindolone M1 receptor positive allosteric modulators” (Merck Sharp & Dohme Corp., priority 2010, dated 2014).
# Molecular target: T1, acetylcholine muscarinic M1 receptor (Homo sapiens, UniProt P11229)
# T1 construct: expressed in transfected cells; host or cells: CHOnfat cells (CHO with NFAT reporter background), Geneticin-selected
# T1 sequence (P11229 1-460): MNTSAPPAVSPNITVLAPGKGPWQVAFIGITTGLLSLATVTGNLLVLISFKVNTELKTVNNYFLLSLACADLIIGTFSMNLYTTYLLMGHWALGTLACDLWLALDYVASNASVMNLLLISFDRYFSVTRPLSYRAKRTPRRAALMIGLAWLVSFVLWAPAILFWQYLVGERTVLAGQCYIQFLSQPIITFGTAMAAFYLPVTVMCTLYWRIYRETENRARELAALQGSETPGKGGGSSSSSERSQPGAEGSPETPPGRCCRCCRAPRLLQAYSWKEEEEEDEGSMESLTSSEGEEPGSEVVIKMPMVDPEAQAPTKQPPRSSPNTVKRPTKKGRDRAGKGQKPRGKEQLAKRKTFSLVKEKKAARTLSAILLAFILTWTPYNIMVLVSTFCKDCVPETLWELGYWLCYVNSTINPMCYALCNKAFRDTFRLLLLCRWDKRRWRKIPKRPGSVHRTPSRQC
# Experiment: muscarinic FLIPR assay: intracellular calcium in CHOnfat/hM1 cells, potentiation of EC20 acetylcholine
# Type: cell-based
# Conditions: IP = inflection point calculated from FLIPR values, 4 min preincubation, then EC20 acetylcholine (3 nM final)
# Description: The assay studies the effect of one or several concentrations of test compounds on basal or acetylcholine-stimulated Ca^2+ levels using FLIPR.
# Compounds are prepared and subjected to a preincubation period of 4 min. Thereafter, a single EC20 concentration of acetylcholine is added to each well (3 nM final). The intracellular Ca^2+ level of each sample is measured and compared to an acetylcholine control to determine any modulatory activity.
# Cells: CHOnfat/hM1, hM2, hM3 or hM4 cells are plated 24 hr before the assay at a density of 18,000 cells/well (100 μL) in a 384 well plate. CHOnfat/hM1 and CHOnfat/hM3 Growth Medium: 90% DMEM (Hi Glucose); 10% HI FBS; 2 mM L-glutamine; 0.1 mM NEAA; Pen-Strep; and 1 mg/ml Geneticin, are added. For M2Gqi5CHOnfat and M4Gqi5CHOnfat cells, an additional 600 ug/ml hygromycin is added.
# Equipment: 384 well plate, 120 μL addition plate; 96-well Whatman 2 ml Uniplate Incubator, 37° C., 5% CO2; Skatron EMBLA-384 Plate Washer; Multimek Pipetting System; Genesis Freedom 200 System; Mosquito System; Temo Nanoliter Pipetting System; and FLIPR^384 Fluorometric Imaging Plate Reader System are used.
# Buffers. Assay Buffer: Hanks Balanced Salt Solution, with 20 mM Hepes, 2.5 mM Probenecid (Sigma P-8761) first dissolved in 1 N NaOH, 1% Bovine Serum Albumin (Sigma A-9647). Dye Loading Buffer: Assay Buffer plus 1% Fetal Bovine Serum and Fluo-4AM/Pluronic Acid Mixture. 2 mM Fluo-4AM ester stock in DMSO (Molecular Probes F-14202) Concentration of 2 μM in buffer for a final concentration of 1 μM in Assay. 20% Pluronic Acid Solution stock, with concentration of 0.04% in Buffer, 0.02% in Assay.
# 65 μL of 2 mM Fluo-4AM are mixed with 130 μL of 20% Pluronic Acid. The resulting solution and 650 μL FBS is added to the assay buffer for a total volume of 65 mL. Positive Controls: 4-Br-A23187: 10 mM in DMSO; final concentration […]. Acetylcholine: 10 mM in water, working stock at both 20 μM and 30 μM in assay buffer, final concentration of 10 μM. This is used to check the maximum stimulation of the CHOK1/hM1 cells. 20 μM (2×) acetylcholine is added in the preincubation part of the assay, and the 30 μM (3×) stock is added in the second part. (EC20)Acetylcholine: 10 mM in water, working stock of 9 nM (3×), and final concentration in assay is 3 nM. This is used after the preincubation with test compounds. Addition of the EC20 Acetylcholine to each well with a test compound will ascertain any modulator activity. 24 wells contain 3 nM Acetylcholine alone as a control.
# Determining Activity of Putative Compounds:
# Screening Plate Compounds are titrated in 96-well plates (columns 2-11), 100% DMSO, started at a concentration of 15 mM (150× stock concentration), and 3-fold serial dilutions using Genesis Freedom200 System. Four 96-well plates are combined into a 384-well plate using Mosquito Nanoliter Pipetting System by transferring 1 μl of serial diluted compounds to each well, and 1 mM acetylcholine (100× stock concentration) were added as a control. Using Temo, 49 μl assay buffer is added to each well of the 384-well plate right before assay.
# In a 96-well Whatman 2 ml Uniplate, 9 nM Acetylcholine (3×) is pipetted into wells corresponding to the screening compounds, and into control wells. The 30 μM acetylcholine control (3×) is added into control wells, and the 3× agonist plate is transferred into a 384 well plate.
# Cells are washed three times with 100 μL of buffer, leaving 30 μL of buffer in each well. Using Multimek, 30 μL of Dye Loading Buffer is added into each well and incubated at 37° C., 5% CO2 for up to one hr.
# After 60 min, the cells are washed three times with 100 μL of buffer, leaving 30 μL of buffer in each well. The cell plate, screening plate, and agonist addition plates are placed on the platform in the FLIPR and the door closed. A signal test to check background fluorescence and basal fluorescence signal is performed. Laser intensity is adjusted if necessary. […]
row,EC50 [nM],SMILES
1,29,"CSc1ccc(Cc2cc3c(c4ccccc24)CN([C@H]2CCCC[C@@H]2O)C3=O)cn1 [Example 10, 2-[(1S,2S)-2-Hydroxycyclohexyl]-5-{[6-(methylthio)pyridine-3-yl]methyl}-1,2-dihydro-3H-benzo[e]isoindol-3-one]"
2,2470,"O=C1c2cc(Cc3ccc(Cl)nc3)c3ccccc3c2CN1C1C=CCCC1 (stereo not drawn) [Example 5, 5-[(6-Chloropyridin-3-yl)methyl]-2-cyclohex-2-en-1-yl-1,2-dihydro-3H-benzo[e]isoindol-3-one]"
3,13,"N#Cc1ccc(Cc2cc3c(c4ccccc24)CN([C@H]2CCCC[C@@H]2O)C3=O)cn1 [Example 9, 5-({2-[(1S,2S)-2-Hydroxycyclohexyl]-3-oxo-2,3-dihydro-1H-benzo[e]isoindol-5-yl}methyl)pyridine-2-carbonitrile]"
